Laboratory results from patent publication US20070049564A1 (Wyeth, priority 2005, published 2007).
Values after ≈ are worked out from the molar mass of the structure shown. Where two headings read alike, the source gives them in different places.

What was measured:
E. coli GC 4559 = assay: MIC, broth microdilution; conditions: Escherichia coli
S. agalactiae GC 4564 = assay: MIC, broth microdilution; conditions: Streptococcus agalactiae
E. coli GC 1073 = assay: MIC, broth microdilution; conditions: Escherichia coli
E. faecalis GC 2242 = assay: MIC, broth microdilution; conditions: Enterococcus faecalis
E. coli GC 3226 = assay: MIC, broth microdilution; conditions: Escherichia coli
Procedure: (§1) Antimicrobial susceptibility testing. The in vitro activities of the antibiotics are determined by the broth microdilution method as recommended by the National Committee for Clinical Laboratory Standards (NCCLS) (1). Mueller-Hinton II broth (MHBII)(BBL Cockeysville, Md.) is the medium employed in the testing procedures. Microtiter plates containing serial dilutions of each antimicrobial agent are inoculated with each organism to yield the appropriate density (10^5 CFU/ml) in a 100 μl final volume. The plates are incubated for 18-22 hours at 35° C. in ambient air.
Representative compounds were first incubated in mouse serum for an hour prior to the in vitro testing against a panel of selected gram-positive and gram-negative bacteria strains. All compounds were also pre-incubated in water for an hour prior to testing as control. Representative compounds of Formula I were incubated in human serum prior to MIC determination.

E. coli GC 2271 = assay: MIC, broth microdilution; conditions: Escherichia coli
S. pyogenes GC 4563 = assay: MIC, broth microdilution; conditions: Streptococcus pyogenes
E. faecium GC 2243 = assay: MIC, broth microdilution; conditions: Enterococcus faecium
P. aeruginosa GC 2214 = assay: MIC, broth microdilution; conditions: Pseudomonas aeruginosa
S. aureus GC 4536 = assay: MIC, broth microdilution; conditions: Staphylococcus aureus
S. aureus GC 2216 = assay: MIC, broth microdilution; conditions: Staphylococcus aureus
E. faecalis GC 2265 = assay: MIC, broth microdilution; conditions: Enterococcus faecalis
Staph. aureus Smith = assay: In vivo activity (oral, iv; ED50) against Staph. aureus Smith in mice
Procedure: Representative examples of compounds of Formula I were tested for the oral efficacy using S. aureus Smith in mice.

E. coli GC 2270 = assay: MIC, broth microdilution; conditions: Escherichia coli
S. pneumoniae+ GC 4465 = assay: MIC, broth microdilution; conditions: Streptococcus pneumoniae
S. aureus GC 6469 = assay: MIC, broth microdilution; conditions: Staphylococcus aureus
Procedure: as §1
Representative compounds were first incubated in mouse serum for an hour prior to the in vitro testing against a panel of selected gram-positive and gram-negative bacteria strains. All compounds were also pre-incubated in water for an hour prior to testing as control.

E. coli = assay: Range of MIC for E. coli strains; conditions: Escherichia coli
S. aureus GC 6335 = assay: MIC, broth microdilution; conditions: Staphylococcus aureus
c. albicans GC 3066 = assay: MIC, broth microdilution
E. coli GC 2232 = assay: MIC, broth microdilution; conditions: Escherichia coli

CN(C)c1cc(NC(=O)CN(C(=O)OCOC(=O)C2CCCC2)C(C)(C)C)c(O)c2c1C[C@H]1C[C@H]3[C@H](N(C)C)C(O)=C(C(N)=O)C(=O)[C@@]3(O)C(O)=C1C2=O [Example 46, ({[(2-{[(5aR,6aS,7S,10aS)-9-(aminocarbonyl)-4,7-bis(dimethylamino)-1,8,10a,11-tetrahydroxy-10,12-dioxo-5,5a,6,6a,7,10,10a,12-octahydrotetracen-2-yl]amino}-2-oxoethyl)(tert-butyl)amino]carbonyl}oxy)methyl cyclopentanecarboxylate]
MIC (E. coli GC 4559; GC4559, read-out: MINIMAL INHIBITORY CONCENTRATION MIC, pre-incubated in Human Serum): 8 µg/mL (≈ 10.6 µM) | MIC (E. coli GC 4559; GC4559, read-out: MINIMAL INHIBITORY CONCENTRATION MIC, pre-incubated in Mouse Serum): 1 µg/mL (≈ 1.32 µM) | MIC (E. coli GC 4559; GC4559, read-out: MINIMAL INHIBITORY CONCENTRATION MIC, pre-incubated in Water): > 64 µg/mL | MIC (S. agalactiae GC 4564; GC4564, read-out: MINIMAL INHIBITORY CONCENTRATION MIC, pre-incubated in Human Serum): 0.25 µg/mL (≈ 0.331 µM) | MIC (S. agalactiae GC 4564; GC4564, read-out: MINIMAL INHIBITORY CONCENTRATION MIC, pre-incubated in Mouse Serum): 0.25 µg/mL (≈ 0.331 µM) | MIC (S. agalactiae GC 4564; GC4564, read-out: MINIMAL INHIBITORY CONCENTRATION MIC, pre-incubated in Water): 0.25 µg/mL (≈ 0.331 µM) | MIC (E. coli GC 1073; GC1073, read-out: MINIMAL INHIBITORY CONCENTRATION MIC, pre-incubated in Human Serum): 8 µg/mL (≈ 10.6 µM) | MIC (E. coli GC 1073; GC1073, read-out: MINIMAL INHIBITORY CONCENTRATION MIC, pre-incubated in Mouse Serum): 1 µg/mL (≈ 1.32 µM) | MIC (E. coli GC 1073; GC1073, read-out: MINIMAL INHIBITORY CONCENTRATION MIC, pre-incubated in Water): > 64 µg/mL | MIC (E. faecalis GC 2242; GC2242, read-out: MINIMAL INHIBITORY CONCENTRATION MIC, pre-incubated in Human Serum): 1 µg/mL (≈ 1.32 µM) | MIC (E. faecalis GC 2242; GC2242, read-out: MINIMAL INHIBITORY CONCENTRATION MIC, pre-incubated in Mouse Serum): 0.5 µg/mL (≈ 0.662 µM) | MIC (E. faecalis GC 2242; GC2242, read-out: MINIMAL INHIBITORY CONCENTRATION MIC, pre-incubated in Water): 1 µg/mL (≈ 1.32 µM) | MIC (E. coli GC 3226; GC3226, read-out: MINIMAL INHIBITORY CONCENTRATION MIC, pre-incubated in Human Serum): 16 µg/mL (≈ 21.2 µM) | MIC (E. coli GC 3226; GC3226, read-out: MINIMAL INHIBITORY CONCENTRATION MIC, pre-incubated in Mouse Serum): 1 µg/mL (≈ 1.32 µM) | MIC (E. coli GC 3226; GC3226, read-out: MINIMAL INHIBITORY CONCENTRATION MIC, pre-incubated in Water): > 64 µg/mL | MIC (E. coli GC 2271; GC2271, read-out: MINIMAL INHIBITORY CONCENTRATION MIC, pre-incubated in Human Serum): 4 µg/mL (≈ 5.29 µM) | MIC (E. coli GC 2271; GC2271, read-out: MINIMAL INHIBITORY CONCENTRATION MIC, pre-incubated in Mouse Serum): 0.5 µg/mL (≈ 0.662 µM) | MIC (E. coli GC 2271; GC2271, read-out: MINIMAL INHIBITORY CONCENTRATION MIC, pre-incubated in Water): 64 µg/mL (≈ 84.7 µM) | MIC (S. pyogenes GC 4563; GC4563, read-out: MINIMAL INHIBITORY CONCENTRATION MIC, pre-incubated in Human Serum): 0.25 µg/mL (≈ 0.331 µM) | MIC (S. pyogenes GC 4563; GC4563, read-out: MINIMAL INHIBITORY CONCENTRATION MIC, pre-incubated in Mouse Serum): 0.12 µg/mL (≈ 0.159 µM) | MIC (S. pyogenes GC 4563; GC4563, read-out: MINIMAL INHIBITORY CONCENTRATION MIC, pre-incubated in Water): 0.25 µg/mL (≈ 0.331 µM) | MIC (E. faecium GC 2243; GC2243, read-out: MINIMAL INHIBITORY CONCENTRATION MIC, pre-incubated in Human Serum): 0.25 µg/mL (≈ 0.331 µM) | MIC (E. faecium GC 2243; GC2243, read-out: MINIMAL INHIBITORY CONCENTRATION MIC, pre-incubated in Mouse Serum): 0.25 µg/mL (≈ 0.331 µM) | MIC (E. faecium GC 2243; GC2243, read-out: MINIMAL INHIBITORY CONCENTRATION MIC, pre-incubated in Water): 0.5 µg/mL (≈ 0.662 µM) | MIC (P. aeruginosa GC 2214; GC2214, read-out: MINIMAL INHIBITORY CONCENTRATION MIC, pre-incubated in Human Serum): > 64 µg/mL | MIC (P. aeruginosa GC 2214; GC2214, read-out: MINIMAL INHIBITORY CONCENTRATION MIC, pre-incubated in Mouse Serum): 16 µg/mL (≈ 21.2 µM) | MIC (P. aeruginosa GC 2214; GC2214, read-out: MINIMAL INHIBITORY CONCENTRATION MIC, pre-incubated in Water): > 64 µg/mL | MIC (S. aureus GC 4536; GC4536, read-out: MINIMAL INHIBITORY CONCENTRATION MIC, pre-incubated in Human Serum): 0.5 µg/mL (≈ 0.662 µM) | MIC (S. aureus GC 4536; GC4536, read-out: MINIMAL INHIBITORY CONCENTRATION MIC, pre-incubated in Mouse Serum): 0.5 µg/mL (≈ 0.662 µM) | MIC (S. aureus GC 4536; GC4536, read-out: MINIMAL INHIBITORY CONCENTRATION MIC, pre-incubated in Water): 0.5 µg/mL (≈ 0.662 µM) | MIC (S. aureus GC 2216; GC2216, read-out: MINIMAL INHIBITORY CONCENTRATION MIC, pre-incubated in Human Serum): 0.5 µg/mL (≈ 0.662 µM) | MIC (S. aureus GC 2216; GC2216, read-out: MINIMAL INHIBITORY CONCENTRATION MIC, pre-incubated in Mouse Serum): 0.5 µg/mL (≈ 0.662 µM) | MIC (S. aureus GC 2216; GC2216, read-out: MINIMAL INHIBITORY CONCENTRATION MIC, pre-incubated in Water): 1 µg/mL (≈ 1.32 µM) | MIC (E. faecalis GC 2265; GC2265, read-out: MINIMAL INHIBITORY CONCENTRATION MIC, pre-incubated in Human Serum): 1 µg/mL (≈ 1.32 µM) | MIC (E. faecalis GC 2265; GC2265, read-out: MINIMAL INHIBITORY CONCENTRATION MIC, pre-incubated in Mouse Serum): 0.5 µg/mL (≈ 0.662 µM) | MIC (E. faecalis GC 2265; GC2265, read-out: MINIMAL INHIBITORY CONCENTRATION MIC, pre-incubated in Water): 2 µg/mL (≈ 2.65 µM) | ED50 (Staph. aureus Smith; Staphylococcus aureus, in Mus musculus, po, read-out: ED50 Staph Smith SOD): 8.4 mg/kg | ED50 (Staph. aureus Smith; iv, read-out: ED50 Staph Smith SIV): 0.83 mg/kg | MIC (E. coli GC 2270; GC2270, read-out: MINIMAL INHIBITORY CONCENTRATION MIC, pre-incubated in Human Serum): 4 µg/mL (≈ 5.29 µM) | MIC (E. coli GC 2270; GC2270, read-out: MINIMAL INHIBITORY CONCENTRATION MIC, pre-incubated in Mouse Serum): 0.5 µg/mL (≈ 0.662 µM) | MIC (E. coli GC 2270; GC2270, read-out: MINIMAL INHIBITORY CONCENTRATION MIC, pre-incubated in Water): > 64 µg/mL | MIC (S. pneumoniae+ GC 4465; read-out: MINIMAL INHIBITORY CONCENTRATION MIC, pre-incubated in Human Serum): 1 µg/mL (≈ 1.32 µM) | MIC (S. pneumoniae+ GC 4465; read-out: MINIMAL INHIBITORY CONCENTRATION MIC, pre-incubated in Mouse Serum): 1 µg/mL (≈ 1.32 µM) | MIC (S. pneumoniae+ GC 4465; read-out: MINIMAL INHIBITORY CONCENTRATION MIC, pre-incubated in Water): 1 µg/mL (≈ 1.32 µM) | MIC (S. aureus GC 6469; GC6469, read-out: MINIMAL INHIBITORY CONCENTRATION MIC, pre-incubated in Human Serum): 0.5 µg/mL (≈ 0.662 µM) | MIC (S. aureus GC 6469; GC6469, read-out: MINIMAL INHIBITORY CONCENTRATION MIC, pre-incubated in Mouse Serum): 1 µg/mL (≈ 1.32 µM) | MIC (S. aureus GC 6469; GC6469, read-out: MINIMAL INHIBITORY CONCENTRATION MIC, pre-incubated in Water): 1 µg/mL (≈ 1.32 µM) | MIC (E. coli; 20 h, read-out: Range of MIC, E. coli (Mouse Serum)): 0.5 to 2 µg/mL (≈ 0.662 to 2.65 µM) | MIC (E. coli; read-out: Minimum inhibitory concentration (MIC), E. coli (Human Serum)): 4 to 16 µg/mL (≈ 5.29 to 21.2 µM) | MIC (S. aureus GC 6335; GC6335, read-out: MINIMAL INHIBITORY CONCENTRATION MIC, pre-incubated in Human Serum): 0.5 µg/mL (≈ 0.662 µM) | MIC (S. aureus GC 6335; GC6335, read-out: MINIMAL INHIBITORY CONCENTRATION MIC, pre-incubated in Mouse Serum): 1 µg/mL (≈ 1.32 µM) | MIC (S. aureus GC 6335; GC6335, read-out: MINIMAL INHIBITORY CONCENTRATION MIC, pre-incubated in Water): 1 µg/mL (≈ 1.32 µM) | MIC (c. albicans GC 3066; Candida albicans, GC3066, read-out: MINIMAL INHIBITORY CONCENTRATION MIC): > 64 µg/mL | MINIMAL INHIBITORY CONCENTRATION MIC (c. albicans GC 3066; pre-incubated in Human Serum): >64 UG/ML | MINIMAL INHIBITORY CONCENTRATION MIC (c. albicans GC 3066; pre-incubated in Mouse Serum): >64 UG/ML | MIC (E. coli GC 2232; GC2232, read-out: MINIMAL INHIBITORY CONCENTRATION MIC, pre-incubated in Human Serum): 4 µg/mL (≈ 5.29 µM) | MIC (E. coli GC 2232; GC2232, read-out: MINIMAL INHIBITORY CONCENTRATION MIC, pre-incubated in Mouse Serum): 0.5 µg/mL (≈ 0.662 µM) | MIC (E. coli GC 2232; GC2232, read-out: MINIMAL INHIBITORY CONCENTRATION MIC, pre-incubated in Water): 64 µg/mL (≈ 84.7 µM)
